# What was measured:
# Type in all cases: in vivo, rat
# [1] = tested on: male Sprague-Dawley rats; experiment: Paw pressure assay, mechanical hyperalgesia (PWT) in thermal burn pain model; details: rat burn injury 55° C. 24 s, 10 mg/kg PO
# Method: (§1) Test Animals: Each experiment used male Sprague-Dawley rats weighing between 190-260 g at the time of thermal burn injury. The rats were housed two per cage, and were allowed to acclimate to their environment for at least six days before testing began. The rats had free access to food and water at all times, except during testing and prior to oral (PO) administration of a test compound, when food was removed about 16 hours before dosing. The rats were divided into treatment groups, and one of the following compounds was administered to each group at the dose and by the route of administration indicated in Tables 5.2A to 5.2C, 5.3A and 5.3B, and 5.4A and 5.4B: ketorolac (Sigma-Aldrich, St. Louis, Mo.), AMG 517 (selective TRPV1 antagonist described in Em. Doherty et al., “Novel vanilloid receptor-1 antagonists:2. Structure-activity relationships of 4-oxopyrimidines leading to the selection of a clinical candidate,” J Med Chem 50:3515-3527 (2007).) (Purdue Pharma L. P., Cranbury, N.J.), indomethacin (Alexis Biochemicals, Farmingdale, N.Y.), gabapentin (Bosche Scientific, New Brunswick, N.J.), or (S)-3-chloro-5-(1,2-dihydroxyethyl)-N-(5-(trifluoromethyl)pyridin-2-yl)-5′,6′-dihydro-[2,4′-bipyridine]-1′(2′H)-carboxamide (Compound 1). The control groups were administered the vehicle for the compound of formula (I). The volume of administration for PO treatment was 5 ml/kg, and was the same for all treatment groups. Volume of administration for intraperitoneal (i.p.) drug administration was 2 ml/kg.
# (§2) To assess the actions of a compound of formula (I) for the treatment or prevention of burn pain, a model of thermal burn pain was used. A thermal burn injury was induced under isofluorane/O2 inhalation anesthesia. To assess mechanical hyperalgesia and weight bearing, a thermal injury was produced by immersing the left hind paw into water maintained at 55° C. for 24 seconds. The left hind paw of non-injured control animals was immersed in 22° C. water for 24 seconds. To assess thermal hyperalgesia, a thermal injury was produced by immersing the left hindpaw into water maintained at 50° C. for 48 seconds; the left hind-paw of non-injured control animals was immersed in 22° C. water for 48 seconds. The animals were assessed for response to noxious mechanical stimuli by determining PWT for mechanical hyperalgesia, weight bearing difference between the injured or non-injured side, or response to noxious thermal stimuli by determining PWL for thermal hyperalgesia, all as described below, prior to drug administration (baseline), then again at 1, 3 and 5 hours after induction of burn injury.
# The paw pressure assay was used to assess mechanical hyperalgesia. For this assay, hind paw withdrawal thresholds (PWT) to a noxious mechanical stimulus were determined using an analgesimeter (Model 7200, commercially available from Ugo Basile of Italy) as described in C. Stein, “Unilateral Inflammation of the Hindpaw in Rats as a Model of Prolonged Noxious Stimulation: Alterations in Behavior and Nociceptive Thresholds,” Pharmacol. Biochem. and Behavior 31:451-455 (1988). The rat's paw was placed on a small platform, and weight was applied in a graded manner up to a maximum of 250 grams. The endpoint was taken as the weight at which the paw was completely withdrawn. PWT was determined once for each rat at each time point, wherein the affected (ipsilateral; same side as the injury) rear paw was tested. […] All drug treatment groups were compared to the vehicle control group (i.e. injured, administered only the vehicle).
# [2] = tested on: male Sprague-Dawley rats; experiment: Hind limb weight bearing (incapacitance meter, % WL) in thermal burn pain model; details: rat burn injury 55° C. 24 s, 10 mg/kg PO
# Method: as §1, §2
# A commercially available incapacitance meter was used to determine the weight distribution on the two hind paws of the animal (Linton Incapacitance Tester (Linton Instrumentation, Norfolk, UK)). The weight bearing difference (WBD) between the injured and non-injured hindpaw was measured. The animal was placed in the testing chamber that allows the animal to stand normally, distributing its body weight on the hind limbs for the test. Each hind paw was positioned on a separate pressure sensitive pad, which independently measures the pressure applied by each limb. The device continuously collects data after either a force threshold has been exceeded, or the investigator depresses the start pad. Rats were allowed to acclimate when placed on the apparatus, and when they were stationary, the force exerted was then continuously monitored for 3 s. The endpoint was the amount of pressure applied to each limb over time. Three readings were taken for each rat at each time point, and the average used for data analysis. WBD was expressed as “% WL”, i.e. the percentage of weight borne on the burn-injured left hind paw, using the following formula: […]
# where WLP is the weight on the left hind paw and WRP is the weight on the right (untreated) hind paw. The 50% value of % WL corresponds to an equal weight distribution across both hind paws. […]
# [3] = tested on: male Sprague-Dawley rats; experiment: Plantar test, thermal hyperalgesia (PWL) in thermal burn pain model; details: rat burn injury 50° C. 48 s
# Method: as §1, §2
# The plantar test was used to assess thermal hyperalgesia. For this test, hind paw withdrawal latencies (PWL) to a noxious thermal stimulus were determined using a plantar test apparatus (commercially available from Ugo Basile of Italy) following the technique described by K. Hargreaves et al., “A New and Sensitive Method for Measuring Thermal Nociception in Cutaneous Hyperalgesia,” Pain 32(1):77-88 (1988). The maximum exposure time was set at 32 seconds to avoid tissue damage and any directed paw withdrawal from the heat source is taken as the end point. Three latencies were determined at each time point and averaged.
# [4] = baseline (prior to drug administration)
# [5] = 10 mg/kg PO, 1 h after administration
# [6] = 10 mg/kg PO, 3 h after administration
# [7] = 10 mg/kg PO, 5 h after administration
# [8] = 30 mg/kg PO, 1 h after administration
# [9] = 30 mg/kg PO, 3 h after administration
# [10] = 30 mg/kg PO, 5 h after administration
compound,measurement,setting,value
"O=C(c1ccccc1)c1ccc2n1CCC2C(=O)O (stereo not shown) [Ketorolac, ketorolac]",% Decrease from Baseline (mean ± S.E.M.) of Paw Withdrawal Threshold,[1]; 1 h after administration,66 ± 2.2%
same,Paw Withdrawal Threshold (g) (mean ± S.E.M.),[1]; 1 h after administration,84 ± 6.1 g
same,% Decrease from Baseline (mean ± S.E.M.) of Paw Withdrawal Threshold,[1]; 3 h after administration,60 ± 3.8%
same,Paw Withdrawal Threshold (g) (mean ± S.E.M.),[1]; 3 h after administration,97 ± 7.5 g
same,% Decrease from Baseline (mean ± S.E.M.) of Paw Withdrawal Threshold,[1]; 5 h after administration,63 ± 34%
same,Paw Withdrawal Threshold (g) (mean ± S.E.M.),[1]; 5 h after administration,91 ± 7.1 g
same,Paw Withdrawal Threshold (g) (mean ± S.E.M.),[1]; [4],246 ± 4.5 g
same,"% WL (mean ± S.E.M.), percentage of weight borne on the burn-injured left hind paw",[2]; 1 h after administration,50.0 ± 2.20 %
same,"% WL (mean ± S.E.M.), percentage of weight borne on the burn-injured left hind paw",[2]; 3 h after administration,42.6 ± 1.91%
same,"% WL (mean ± S.E.M.), percentage of weight borne on the burn-injured left hind paw",[2]; 5 h after administration,40.1 ± 2.72%
same,"% WL (mean ± S.E.M.), percentage of weight borne on the burn-injured left hind paw",[2]; [4],49.8 ± 0.31%
same,% Change from Baseline (mean ± S.E.M.) of Paw Withdrawal Latency,[3]; [5],−22.3 ± 6.30%
same,Paw Withdrawal Latency (sec) (mean ± S.E.M.),[3]; [5],9.2 ± 0.96 s
same,% Change from Baseline (mean ± S.E.M.) of Paw Withdrawal Latency,[3]; [6],−6.7 ± 5.55%
same,Paw Withdrawal Latency (sec) (mean ± S.E.M.),[3]; [6],11.9 ± 1.27 s
same,% Change from Baseline (mean ± S.E.M.) of Paw Withdrawal Latency,[3]; [7],−10.2 ± 3.05%
same,Paw Withdrawal Latency (sec) (mean ± S.E.M.),[3]; [7],11.4 ± 0.54 s
same,Paw Withdrawal Latency (sec) (mean ± S.E.M.),"[3]; 10 mg/kg PO, baseline (prior to drug administration)",13.2 ± 0.72 s
same,% Change from Baseline (mean ± S.E.M.) of Paw Withdrawal Latency,[3]; [8],−47.6 ± 19.35%
same,Paw Withdrawal Latency (sec) (mean ± S.E.M.),[3]; [8],8.5 ± 0.89 s
same,% Change from Baseline (mean ± S.E.M.) of Paw Withdrawal Latency,[3]; [9],−24.0 ± 19.85%
same,Paw Withdrawal Latency (sec) (mean ± S.E.M.),[3]; [9],12.6 ± 1.33 s
same,% Change from Baseline (mean ± S.E.M.) of Paw Withdrawal Latency,[3]; [10],−10.2 ± 12.40%
same,Paw Withdrawal Latency (sec) (mean ± S.E.M.),[3]; [10],14.3 ± 0.80 s
same,Paw Withdrawal Latency (sec) (mean ± S.E.M.),"[3]; 30 mg/kg PO, baseline (prior to drug administration)",14.7 ± 1.29 s

# Source: US20180303809A1, “TREATMENT OF BURN PAIN BY TRPV1 MODULATORS” (Purdue Pharma L.P., priority 2013, published 2018)
